Experiments:
[1] = Chemo-stability (lactone ring opening), LC-MS; type: physicochemical; settings: chemical stability, 0.1 mM in PBS pH 7.4, 37°C, 5 h incubation, samples injected twice
Protocol: Electron spray mass spectra (ESI-MS) were obtained using an Autoflex III smart-beam (MALDI, Bruker), Q-TOF micro (Waters) or an LCQ Fleet™ ion trap mass spectrometer (Finnigan/Thermo). HPLC/LC-MS analyses were made using Agilent infinity 1260 connected to Agilent quadruple LC-MS 6120 series equipped with ZORBAX SB-C18, 50 × 2.1 mm, 1.8 μm column. In all cases the eluent solvents were A (0.1% TFA in H2O) and B (0.1% TFA in ACN) and the elution gradient profile was: 100% A for first 4 min, 8 min (from min 4 to min 12) during which it reached 100% B, 4 min (from min 12 to min 16) of 100% B, 2 min (from min 16 to min 18) during which it returned back to A, and 2 min (from min 18 to min 20) of 100% A. The UV detection was at 254 nm. Column temperature was kept at 50°C. The flow rate was of 0.4 ml/min. The MS fragmentor was tuned on 100V on positive or negative mode.
0.1 mM CPT and ALOS4-CPT were incubated in acetate buffer at pH 4.5 and in PBS at pH 7.4 at 37°C. During the incubation period (24h - 144h), aliquots were removed at different time intervals, filtered and analyzed by LC-MS.

[2] = system: WM-266-4 human metastatic melanoma cells; experiment: Cell survival test (XTT assay), WM-266-4; type: cell-based; settings: WM-266-4 cells, 10μM, 48 hours, three repeats in quadruplicates
Protocol: (§1) The cytotoxicity of the compounds was determined by measuring the mitochondrial enzyme activity, using a commercial XTT assay kit (#20-30-100, Biological Industries, Beit-Haemek, Israel) according to the manufacturer protocol using 2×10^3 cells/well of a 96–well plate. The cells were cultured for 24 hours in growth medium followed by additional 48 hours with growth medium supplemented with different concentrations of the tested substances. The absorbance of the XTT reagent was measured with a TECAN Infinite M200 ELISA reader. The absorbencies were normalized to the absorbance of cells grown in medium and solvent. All the tests were repeated three times in quadruplicates.

WM-266-4 cells = experiment: Confocal analysis of intracellular localization of CPT in live cells; type: cell-based, human; settings: live WM-266-4 cells, 10 μM, 1 h, CPT fluorescence
Source text: Fluorescent images of ALOS4-FITC were acquired by Photometrics CoolSNAP HQ2 camera mounted on an Olympus iX81 fluorescent microscope. For confocal microscopy analysis the cells were transfected with a plasmid expressing GFP-fused histone H1E (pH1E-GFP) using Xfect polymer (ST0152, Clontech Laboratories, CA, USA) and were stained with CytoPainter Lysosomal Staining Kit - Red Fluorescence (ab112137, Abcam, Cambridge, MA, USA). Images were collected with a Zeiss LSM700 confocal microscope.

γH2A.X in HEK293 cells = experiment: Western blot, γH2A.X (DSBs) in HEK293 cells; type: cell-based, human; settings: 3 hours
Protocol: (§2) The cells were scraped and washed with PBS buffer. Cell lysates were prepared by sonication in 1 X SDS sample buffer supplemented with protease inhibitor cocktail (MBS539134, Millipore) and boiling for 10 min. The proteins were separated by SDS-PAGE and transferred to nitrocellulose membranes. The following antibodies were used for western blotting: active caspase 3 (C8487, Sigma), γH2AX (05-636, Millipore) and histone H3 (05-928, Millipore). The band intensities in a representative experiment were quantified by the ImageJ program.

[3] = system: non-malignant HEK293 cells; experiment: Cell survival test (XTT assay), HEK293; type: cell-based, human; settings: 48 hours, XTT (experiment repeated as for WM-266-4, 10μM), three repeats in quadruplicates
Protocol: as §1

[4] = system: active caspase 3 in HEK293 cells; experiment: Western blot, active caspase 3 in HEK293 cells; type: cell-based, human
Protocol: as §2

For CC[C@@]1(O)C(=O)OCc2c1cc1n(c2=O)Cc2cc3ccccc3nc2-1 [CPT, Camptothecin], which “CPT that underwent lactone ring opening to carboxylate” value [1] is on record?
Its value is roughly 40%.

What about the “Cell survival, % of the control cells” value [2] of the same compound?
Its value is 65%.

What about the “Intracellular localization of CPT” value (WM-266-4 cells) of the same compound?
The value was “accumulation of CPT inside the nucleus and to some less degree in the lysosome”.

And the “Increase in the levels of γH2A.X” value (γH2A.X in HEK293 cells)?
The value was roughly 2 fold.

What about the “Cell survival, % of the control cells” value [3] of the same compound?
Its value is 16%.

And the “Increase in the levels of active caspase 3” value ([4]; 3 hours)?
The value was roughly 2 fold.

What about the “Increase in the levels of active caspase 3” value ([4]; 24 hours) of the same compound?
Its value is “more than 5 fold”.

For COc1cc([C@@H]2c3[nH]c4ccccc4c3C[C@H]3COC(=O)N32)cc(OC)c1O [AZA, Azatoxin], which “Cell survival, % of the control cells” value [2] is on record?
The value was 68%.

And the “Cell survival, % of the control cells” value [3]?
Its value is 44%.

With CN(C)CCN1C(=O)c2cccc3cc(N)cc(c23)C1=O [AM, Amonafide] as the compound, how does the “Cell survival, % of the control cells” value [2] read?
Its value is 48%.

And the “Cell survival, % of the control cells” value [3]?
Its value is 27%.

Reference: publication PMC5352194, “Toward the development of a novel non-RGD cyclic peptide drug conjugate for treatment of human metastatic melanoma” (Oncotarget, 2016)
